According to PMC3617124 (Nature chemical biology, 2012):

Assays:
Bax^−/− and Bak^−/− MEFs = assay: apoptotic response to standard proapoptotic stimuli; type: cell-based, mouse
BAKΔC = assay: competitive FPA, BAKΔC; type: binding
Bak^−/− MEFs [1] = assay: mitochondrial cytochrome c release; type: cell-based, mouse; settings: 15 h, supernatant and pellet western blot
MCL-1ΔNΔC = MCL-1ΔNΔC (Homo sapiens, UniProt Q07820); assay: competitive FPA, MCL-1ΔNΔC; type: binding; settings: even at 50-μM dosing
Sequence of MCL-1ΔNΔC (Q07820 172-327, stated change not applied): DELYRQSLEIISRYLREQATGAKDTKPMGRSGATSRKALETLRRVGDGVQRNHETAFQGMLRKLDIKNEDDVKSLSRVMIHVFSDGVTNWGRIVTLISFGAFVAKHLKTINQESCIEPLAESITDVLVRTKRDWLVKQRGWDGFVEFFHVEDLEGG

BFL-1/A1ΔC = target: T1, BFL-1/A1ΔC (Homo sapiens, UniProt Q16548); assay: competitive FPA, BFL-1/A1ΔC; type: binding; settings: even at 50-μM dosing
T1 sequence (Q16548 1-153 limits assumed): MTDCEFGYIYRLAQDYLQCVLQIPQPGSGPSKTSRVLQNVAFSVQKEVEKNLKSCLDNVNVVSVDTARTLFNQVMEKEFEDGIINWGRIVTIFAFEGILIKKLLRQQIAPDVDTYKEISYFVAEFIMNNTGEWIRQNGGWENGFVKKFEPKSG

Bak^−/− MEFs [2] = assay: cell viability assay; type: cell-based, mouse; settings: 24 h, CellTiter-Glo
BCL-XLΔC = BCL-XLΔC (Homo sapiens, UniProt Q07817); assay: competitive FPA, BCL-XLΔC; type: binding; settings: even at 50-μM dosing
Sequence of BCL-XLΔC (Q07817 1-212 limits assumed, stated change not applied): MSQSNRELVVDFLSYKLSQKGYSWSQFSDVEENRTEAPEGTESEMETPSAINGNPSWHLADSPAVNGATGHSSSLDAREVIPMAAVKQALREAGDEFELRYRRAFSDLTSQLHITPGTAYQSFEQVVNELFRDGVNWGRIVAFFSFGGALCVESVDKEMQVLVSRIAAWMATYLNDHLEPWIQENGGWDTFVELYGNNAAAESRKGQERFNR

Bax^−/− Bak^−/− MEFs = assay: cell viability assay; type: cell-based, mouse; settings: 24 h, CellTiter-Glo
Bax^−/− MEFs = assay: cell viability assay; type: cell-based, mouse; settings: 24 h, CellTiter-Glo

CN[C@@H]1C[C@H]2O[C@@](C)([C@@H]1OC)n1c3ccccc3c3c4c(c5c6ccccc6n2c5c31)C(=O)NC4 [staurosporine]
apoptotic response in Bax−/− versus Bak−/− MEFs (Bax^−/− and Bak^−/− MEFs): equivalent apoptotic response

CC[C@H](C)[C@H](NC(C)=O)C(=O)N[C@@H](Cc1c[nH]c2ccccc12)C(=O)N[C@H](C(=O)N[C@@H](C)C(=O)N[C@@H](CCC(N)=O)C(=O)N[C@@H](CCC(=O)O)C(=O)N[C@@H](CC(C)C)C(=O)N[C@@H](CCCNC(=N)N)C(=O)N[C@@]1(C)CCCC=CCCC[C@@](C)(C(=O)N[C@@H](Cc2ccccc2)C(=O)N[C@@H](CC(N)=O)C(=O)N[C@@H](C)C(=O)N[C@@H](Cc2ccc(O)cc2)C(=O)N[C@@H](Cc2ccc(O)cc2)C(=O)N[C@@H](C)C(=O)N[C@@H](CCCNC(=N)N)C(=O)N[C@@H](CCCNC(=N)N)C(N)=O)NC(=O)[C@H](CC(=O)O)NC(=O)CNC(=O)[C@H]([C@@H](C)CC)NC1=O)[C@@H](C)CC [BIM SAHB, reference compound]
IC50 (BAKΔC; read-out: IC50, competition with FITC–BIM SAHB for BAKΔC, competitive FPA): 827 nM

CCOc1ccccc1NN=C1C(=O)N(c2nc(-c3ccccc3)cs2)N=C1C [BAM7, 4-(2-(2-ethoxyphenyl) hydrazono)-3-methyl-1-(4-phenylthiazol-2-yl)-1H-pyrazol-5(4H)-one]
mitochondrial cytochrome c release (Bak^−/− MEFs [1]): dose-responsive mitochondrial cytochrome c release | competitive binding interaction with MCL-1ΔNΔC (MCL-1ΔNΔC): little to no | competitive binding interaction with BAKΔC (BAKΔC; even at 50-μM dosing): little to no | competitive binding interaction with BFL-1/A1ΔC (BFL-1/A1ΔC): little to no | viability of Bak−/− MEFs (Bak^−/− MEFs [2]): dose- and time-responsively impaired the viability | competitive binding interaction with BCL-XLΔC (BCL-XLΔC): little to no | viability of Bax−/− Bak−/− MEFs (Bax^−/− Bak^−/− MEFs): did not affect the viability | viability of Bax−/− MEFs (Bax^−/− MEFs): no effect

COc1cc([C@@H]2c3cc4c(cc3[C@@H](O[C@@H]3O[C@@H]5CO[C@@H](C)O[C@H]5[C@H](O)[C@H]3O)[C@H]3COC(=O)[C@H]23)OCO4)cc(OC)c1O [etoposide]
apoptotic response in Bax−/− versus Bak−/− MEFs (Bax^−/− and Bak^−/− MEFs): equivalent apoptotic response
